This is an account of results in patent publication US12630498B2 (Genzyme Corporation, priority 2019, dated 2026).

Molecules are shown by their SMILES.

This experiment deals with T1, human Cystic Fibrosis Transmembrane Conductance Regulator (CFTR) harboring the ΔF508 mutation (Homo sapiens, UniProt P13569, DEL508-508).
T1 construct: expressed in transfected cells; host or cells: H441 carcinoma line (G418-selected)
Description: H441 cell ΔF508-CFTR-HRP cell surface assay (Emax and EC50). Type of experiment: cell-based. The note with it: for Emax: NCI-H441, NA = Not active. From the text:
Example 315: H441 Cell Emax and EC50 Two cell lines were used, the H441 carcinoma line and the CFHBE41o- (41o-) human bronchial epithelial line. Both cell lines expressed human Cystic Fibrosis Transmembrane Conductance Regulator (CFTR) harboring the ΔF508 mutation and with an in-frame fusion in CFTR extracellular loop 4 of Horse Radish Peroxidase (HRP) under control of the CMV promoter. In the presence of the HRP tag, ΔF508-CFTR transported to the cell surface was detectable upon addition of an HRP substrate (Luminata Forte). Both cell types were cultivated at 37° C. with CO2. […] For both cell types, the medium was changed every other day unless the culture was at low % confluence. Cells were used for the assays at 75% confluence. To a polypropylene (PP) 384-well plate, 15 pls DMSO was added to all wells in columns 1-22 and 24 (low Control). 15 μls of 260 μM VX809 (Lumacaftor), Selleckchem […], was added to column 23 wells (high Control). 15 pls of 10 mM test compound or VX809 (control) were added to wells of row A. Serial dilutions of Row A compound were performed 2×15 pls in rows A through 0 (15-point). A PP, 384-well plate containing the appropriate cell culture medium was prepared for each assay plate with 100 pls per well. For the doxycycline-induced 41o-cells, doxycycline for both the assay plate and the medium dilution plate was added at 0.0005 mg/ml to the medium. Both cell lines were plated for the assay at 30 pls per 384-well at 3.4×10 e^5 cells per ml ( 10K cells/well). H441 cells were plated on opaque, white, Corning plate 3704. 41o-cells were plated on collagen-coated opaque, white, Corning plate 356665. For 41o-cells, doxycycline was added to the medium. Using FX (Beckman) protocol, 10 pls diluted compound or medium was added per well to the Assay Plate as: 2 pls DMSO Dilution plate well was diluted in 100 pls of the Medium Dilution Plate well, mixed, and 10 pls was transferred to the Assay Plate. The final assay dilution series was 24.5, 12.3, 6.1, 3.1, 1.5, 0.8, 0.4, 0.2, 0.1, 0.05, 0.02, 0.01, 0.006, 0.003, 0.001 and 0 μM. The 41o-assay plates were incubated at 37° C. w/CO2, the H441 assay plates were incubated at 27° C. w/CO2, each overnight for two nights. After being brought to room temperature, the assay plate liquid was removed. 30 uls of Luminata Forte (Millipore ELLUF0100) was added per well and incubated at room temperature for 10 min. The plates were then read on a Topcount, protocol LumiMatti (CPS, luminescence). The data was analyzed for % of maximum, maximum VX809 signal, and EC50 using Pearl and SPEED tools.

T1 sequence (P13569 with tags, fused parts or gaps DEL508-508): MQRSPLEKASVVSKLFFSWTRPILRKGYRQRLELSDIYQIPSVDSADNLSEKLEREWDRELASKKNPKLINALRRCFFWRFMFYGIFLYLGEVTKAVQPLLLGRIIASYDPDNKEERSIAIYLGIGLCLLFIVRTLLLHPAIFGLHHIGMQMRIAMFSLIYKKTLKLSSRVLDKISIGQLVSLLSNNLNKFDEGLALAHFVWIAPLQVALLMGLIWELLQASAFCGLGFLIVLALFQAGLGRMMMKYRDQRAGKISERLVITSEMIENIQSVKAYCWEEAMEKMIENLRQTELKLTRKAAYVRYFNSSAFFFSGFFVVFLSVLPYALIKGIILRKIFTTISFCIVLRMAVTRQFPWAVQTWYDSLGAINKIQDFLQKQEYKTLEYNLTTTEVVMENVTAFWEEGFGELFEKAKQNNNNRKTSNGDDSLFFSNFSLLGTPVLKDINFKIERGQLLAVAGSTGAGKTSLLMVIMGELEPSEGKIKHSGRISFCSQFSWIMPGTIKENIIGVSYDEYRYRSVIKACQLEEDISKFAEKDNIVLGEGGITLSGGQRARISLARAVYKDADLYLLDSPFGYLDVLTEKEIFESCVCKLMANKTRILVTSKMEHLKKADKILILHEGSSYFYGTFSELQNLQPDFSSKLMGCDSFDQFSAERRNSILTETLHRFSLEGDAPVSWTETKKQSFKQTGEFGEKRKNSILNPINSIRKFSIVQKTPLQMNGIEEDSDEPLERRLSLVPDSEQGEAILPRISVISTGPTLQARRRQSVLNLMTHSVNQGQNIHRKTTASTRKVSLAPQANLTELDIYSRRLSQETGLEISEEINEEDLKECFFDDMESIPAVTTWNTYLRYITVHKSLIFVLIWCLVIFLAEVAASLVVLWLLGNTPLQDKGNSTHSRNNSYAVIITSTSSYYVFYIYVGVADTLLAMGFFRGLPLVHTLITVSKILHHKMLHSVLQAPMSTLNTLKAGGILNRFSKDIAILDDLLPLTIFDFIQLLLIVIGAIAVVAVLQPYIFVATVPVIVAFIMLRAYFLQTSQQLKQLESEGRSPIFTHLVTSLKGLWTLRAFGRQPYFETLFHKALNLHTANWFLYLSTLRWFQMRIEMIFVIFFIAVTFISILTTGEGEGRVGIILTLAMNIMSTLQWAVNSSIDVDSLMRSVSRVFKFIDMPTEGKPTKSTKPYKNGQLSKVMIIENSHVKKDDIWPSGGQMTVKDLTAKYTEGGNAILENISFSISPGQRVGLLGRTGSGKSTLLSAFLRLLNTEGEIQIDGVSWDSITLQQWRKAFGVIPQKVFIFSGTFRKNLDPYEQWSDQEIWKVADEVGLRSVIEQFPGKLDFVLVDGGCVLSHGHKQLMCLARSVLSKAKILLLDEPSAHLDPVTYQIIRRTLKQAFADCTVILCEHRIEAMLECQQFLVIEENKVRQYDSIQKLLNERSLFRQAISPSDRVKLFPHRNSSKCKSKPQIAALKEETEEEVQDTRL

Usually EC50 stands for the concentration that produces a half-maximal response. Read a low EC50 as higher potency in that assay. In general, Emax refers to the greatest response seen or fitted, relative to the assay's reference. Take `CS(=O)(=O)c1ccc(COc2c(C(=O)N[C@H](C(=O)O)C3CCCC3)ccc3ccccc23)cc1` [Example 159, (S)-2-cyclopentyl-2-(1-((4-(methylsulfonyl)benzyl)oxy)-2-naphthamido)acetic Acid]: the EC50 came to 6.7 µM and the Emax was determined as 22.8%.

As to `CC(C)(C)C[C@H](NC(=O)c1ccc2cc(N)ccc2c1OCc1ccc(C(F)(F)F)cc1)C(=O)O` [Example 186, (S)-2-(6-amino-1-((4-(trifluoromethyl)benzyl)oxy)-2-naphthamido)-4,4-dimethylpentanoic Acid], the EC50 was determined as 2.7 µM and the Emax turned out to be 46.6%.

In turn, `CC(C)(C)C[C@H](NC(=O)c1ccc2ccccc2c1OCc1ccc(S(C)(=O)=O)cc1)C(=O)O` [Example 158, (S)-4,4-dimethyl-2-(1-((4-(methylsulfonyl)benzyl)oxy)-2-naphthamido)pentanoic Acid] showed an Emax of 13%.

For the molecule `O=C(N[C@H](C(=O)O)C1CCCC1)c1ccc2cc(F)ccc2c1OCc1ccc(S(F)(F)(F)(F)F)cc1` [Example 113, (S)-2-cyclopentyl-2-(6-fluoro-1-((4-(pentafluoro-16-sulfanyl)benzyl)oxy)-2-naphthamido)acetic Acid], the EC50 was 3.7 µM and the Emax turned out to be 58.2%. For `CCC(C)(C)[C@H](NC(=O)c1ccc2cc(F)ccc2c1OCC1CCC(F)(F)CC1)C(=O)O` [Example 34, (S)-2-(1-((4,4-difluorocyclohexyl)methoxy)-6-fluoro-2-naphthamido)-3,3-dimethylpentanoic Acid] the same measures were 3.8 µM and 78.4%. The matching figures for `O=C(N[C@@H](Cc1ccccc1)C(=O)O)c1ccc2ccccc2c1OCc1ccc([N+](=O)[O-])cc1` [Example 91, (1-((4-nitrobenzyl)oxy)-2-naphthoyl)-L-phenylalanine]: 16.4 µM and 44.3%. The matching figures for `CC(C)(C)[C@H](NC(=O)c1ccc2ccc(C(F)(F)F)cc2c1OCc1ccc(OC(F)(F)F)cc1)C(=O)O` [compound 292, (S)-3,3-dimethyl-2-(1-((4-(trifluoromethoxy)benzyl)oxy)-7-(trifluoromethyl)-2-naphthamido)butanoic Acid]: 0.2 µM and 219%. `CO[C@@H](C)[C@H](NC(=O)c1ccc2ccccc2c1OCc1ccc(C(F)(F)F)cc1)C(=O)O` [Example 135, O-methyl-N-(1-((4-(trifluoromethyl)benzyl)oxy)-2-naphthoyl)-L-allothreonine] yielded a half-maximal effective concentration (EC50) of 4.7 µM and a maximal response (Emax) of 93.5%. In turn, `CCC(C)(C)[C@H](NC(=O)c1ccc2cc(OC)ccc2c1OCc1ccc(SC(F)(F)F)cc1)C(=O)O` [Example 32, (S)-2-(6-methoxy-1-((4-((trifluoromethyl)thio)benzyl)oxy)-2-naphthamido)-3,3-dimethylpentanoic Acid] returned an EC50 of 1.5 µM and an Emax of 44.3%. Regarding `O=C(N[C@H](C(=O)O)C1CCCC1)c1ccc2ccccc2c1OCc1ccc(S(=O)(=O)C(F)(F)F)cc1` [Example 156, (S)-2-cyclopentyl-2-(1-((4-((trifluoromethyl)sulfonyl)benzyl)oxy)-2-naphthamido)acetic Acid], the midpoint of the response, the EC50, lay at 1.9 µM and the Emax is 51.7%. For the molecule `CC(C)(C)[C@H](NC(=O)c1ccc2ccccc2c1OCc1ccc(Br)cc1)C(=O)O` [Example 46, (S)-2-(1-((4-bromobenzyl)oxy)-2-naphthamido)-3,3-dimethylbutanoic Acid], it took 3.5 µM to reach a half-maximal effect (EC50) and the Emax came to 26.9%. `C[C@@H](OCc1ccccc1)C(NC(=O)c1ccc2ccccc2c1OCC1CCC(CO)CC1)C(=O)O` (stereo partly drawn) [Example 146, (3R)-3-(benzyloxy)-2-(1-((4-(hydroxymethyl)cyclohexyl)methoxy)-2-naphthamido)butanoic Acid] yielded an EC50 of 17.4 µM and an Emax of 62.2%. For `CC1(C(NC(=O)c2ccc3ccccc3c2OCc2ccc(S(C)(=O)=O)cc2)C(=O)O)CCCCC1` (stereo not shown) [Example 44, 2-(1-methylcyclohexyl)-2-(1-((4-(methylsulfonyl)benzyl)oxy)-2-naphthamido)acetic Acid] the same measures were 5.1 µM and 19.9%. For `CC1(C(NC(=O)c2ccc3cc(F)ccc3c2OCC2CCC(F)(F)CC2)C(=O)O)CCCCC1` (stereo not shown) [Example 54, 2-(1-((4,4-difluorocyclohexyl)methoxy)-6-fluoro-2-naphthamido)-2-(1-methylcyclohexyl)acetic Acid] the same measures were 2.4 µM and 56.1%.

The molecule `CC(C)(C)OC(=O)C[C@H](NC(=O)c1ccc2ccccc2c1OCc1ccc(C(F)(F)F)cc1)C(=O)O` (stereo in doubt) [Example 151, 4-(tert-butoxy)-4-oxo-2-(1-((4-(trifluoromethyl)benzyl)oxy)-2-naphthamido)butanoic Acid] showed an EC50 of 13.4 µM and an Emax of 68.7%. Consider `COc1ccc2c(OCc3ccc(C(F)(F)F)cc3)c(C(=O)N[C@H](C(=O)O)C(C)(C)C)ccc2c1` [Example 38, (S)-2-(6-methoxy-1-((4-(trifluoromethyl)benzyl)oxy)-2-naphthamido)-3,3-dimethylbutanoic Acid], for which the EC50 came out at 1.1 µM and the Emax was 80.8%. The matching figures for `Cc1cc(COc2c(C(=O)NC(C(=O)O)[C@@H](C)OCc3ccccc3)ccc3ccccc23)no1` (stereo partly drawn) [Example 145, (3R)-3-(benzyloxy)-2-(1-((5-methylisoxazol-3-yl)methoxy)-2-naphthamido)butanoic Acid]: 12 µM and 72.6%.

Regarding `CC(C)(C)C[C@H](NC(=O)c1ccc2ccccc2c1OCc1ccc(OC(F)F)cc1)C(=O)O` [Example 108, (S)-2-(1-((4-(difluoromethoxy)benzyl)oxy)-2-naphthamido)-4,4-dimethylpentanoic Acid], the Emax was 4.7%. For the molecule `O=C(N[C@H](C(=O)O)C(c1ccccc1)c1ccccc1)c1ccc2ccccc2c1OCc1ccc(C(F)(F)F)cn1` [Example 132, (S)-3,3-diphenyl-2-(1-((5-(trifluoromethyl)pyridin-2-yl)methoxy)-2-naphthamido)propanoic Acid], a half-maximal response (EC50) required 11.6 µM and the Emax is 49.2%. The matching figures for `Cc1cc(F)c2ccc(C(=O)N[C@H](C(=O)O)C(C)(C)C)c(OCc3ccc(OC(F)(F)F)cc3)c2c1` [Example 271, (2S)-2-[[5-fluoro-7-methyl-1-[[4-(trifluoromethoxy)phenyl]methoxy]naphthalene-2-carbonyl]amino]-3,3-dimethyl-butanoic Acid]: 0.2 µM and 261%. Regarding `CC(C)(SC1CCCC1)[C@H](NC(=O)c1ccc2ccccc2c1OCc1ccc(S(C)(=O)=O)cc1)C(=O)O` [Example 171], the maximum response (Emax) came out at 16.4%.

`CCC(C)(C)[C@H](NC(=O)c1ccc2ccccc2c1OCc1ccc(S(C)(=O)=O)cc1)C(=O)O` [Example 53, (S)-3,3-dimethyl-2-(1-((4-(methylsulfonyl)benzyl)oxy)-2-naphthamido)pentanoic Acid] showed an EC50 of 22.9 µM and an Emax of 19.8%. For `CC1(C(NC(=O)c2ccc3cc(F)ccc3c2OCc2ccc(C(F)(F)F)cc2)C(=O)O)CC1` (stereo not shown) [Example 60, 2-(6-fluoro-1-((4-(trifluoromethyl)benzyl)oxy)-2-naphthamido)-2-(1-methylcyclopropyl)acetic Acid] the same measures were 1.6 µM and 90.3%.
